Measured values published in PubChem BioAssay AID180 (DTP/NCI, 2004).
Where “and” joins values, the source holds several entries; their conditions need not be identical. Equal entries are not always repeated.

System: BDF1 mice, Adenocarcinoma 755 s.c., tumor weight T/C
Assay: NCI In Vivo Anticancer Drug Screen. Data for tumor model Adenocarcinoma 755 (subcutaneous) in B6D2F1 (BDF1) mice
Details: endpoint: mean tumor weight, higher = larger tumour
Method in brief: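 Tumor-bearing mice receive test compound while controls get vehicle alone. Antitumor effect is scored from survival or tumor dimensions as a T/C quotient.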

[1] = dose: 25.0 mg/kg/injection, schedule: Q01DX011 (ip), vehicle: methylcellulose (MC)
[2] = dose: 75.0 mg/kg/injection, schedule: Q01DX011 (ip), vehicle: methylcellulose (MC)
[3] = dose: 225.0 mg/kg/injection, schedule: Q01DX011 (ip), vehicle: methylcellulose (MC)
[4] = dose: 25.0 mg/kg/injection, schedule: Q01DX011 (ip), vehicle: carboxymethylcellulose (CMC)
[5] = dose: 100.0 mg/kg/injection, schedule: Q01DX011 (ip), vehicle: carboxymethylcellulose (CMC)
[6] = dose: 200.0 mg/kg/injection, schedule: Q01DX011 (ip), vehicle: carboxymethylcellulose (CMC)

Question: How did the T/C (dose: 100.0 mg/kg/injection, schedule: Q01DX011 (ip), vehicle: water) turn out when `CC(C)=NOC(N)=O` was run?
Answer: 122 % of control

Question: What about the T/C (dose: 200.0 mg/kg/injection, schedule: Q01DX011 (ip), vehicle: water) of the same molecule?
Answer: 106 % of control

Question: `CSc1ncnc2c1ncn2C1CCCS1` (centres undefined) was tested. Which T/C [1] did it give?
Answer: 61 % of control

Question: What about the T/C [2] of the same molecule?
Answer: 66 % of control

Question: What about the T/C [3] of the same molecule?
Answer: 54 % of control

Question: For `Oc1ccc2ccccc2c1-c1c(O)ccc2ccccc12`, which T/C (dose: 12.6 mg/kg/injection, schedule: Q01DX011 (ip), vehicle: other) is on record?
Answer: 79 % of control

Question: And the T/C (dose: 25.0 mg/kg/injection, schedule: Q01DX011 (ip), vehicle: other)?
Answer: 71 % of control

Question: And the T/C (dose: 50.0 mg/kg/injection, schedule: Q01DX011 (ip), vehicle: other)?
Answer: 41 % of control

Question: How did the T/C (dose: 1.5 mg/kg/injection, schedule: Q01DX011 (ip), vehicle: carboxymethylcellulose (CMC)) turn out when `Nc1c(Br)cc2c(c1Br)Cc1cc([N+](=O)[O-])ccc1-2` was run?
Answer: 85 % of control

Question: And the T/C (dose: 3.0 mg/kg/injection, schedule: Q01DX011 (ip), vehicle: carboxymethylcellulose (CMC))?
Answer: 63 % of control

Question: What about the T/C (dose: 6.0 mg/kg/injection, schedule: Q01DX011 (ip), vehicle: carboxymethylcellulose (CMC)) of the same molecule?
Answer: 43 % of control

Question: And the T/C (dose: 6.0 mg/kg/injection, schedule: Q01DX011 (ip), vehicle: other)?
Answer: 94 % of control

Question: What about the T/C (dose: 6.25 mg/kg/injection, schedule: Q01DX011 (ip), vehicle: saline) of the same molecule?
Answer: 109 % of control

Question: What about the T/C (dose: 12.0 mg/kg/injection, schedule: Q01DX011 (ip), vehicle: carboxymethylcellulose (CMC)) of the same molecule?
Answer: 22 % of control

Question: What about the T/C (dose: 12.5 mg/kg/injection, schedule: Q01DX011 (ip), vehicle: saline) of the same molecule?
Answer: 69 % of control

Question: What about the T/C [4] of the same molecule?
Answer: 7 % of control

Question: What about the T/C (dose: 25.0 mg/kg/injection, schedule: Q01DX011 (ip), vehicle: saline) of the same molecule?
Answer: 82 % of control

Question: What about the T/C (dose: 27.5 mg/kg/injection, schedule: Q01DX011 (ip), vehicle: saline) of the same molecule?
Answer: 46 % of control

Question: And the T/C (dose: 50.0 mg/kg/injection, schedule: Q01DX011 (ip), vehicle: carboxymethylcellulose (CMC))?
Answer: 12 % of control

Question: And the T/C (dose: 50.0 mg/kg/injection, schedule: Q01DX011 (ip), vehicle: saline)?
Answer: 57 % of control

Question: And the T/C (dose: 50.0 mg/kg/injection, schedule: Q01DX011 (oral), vehicle: saline)?
Answer: 90 % of control

Question: And the T/C (dose: 55.0 mg/kg/injection, schedule: Q01DX011 (ip), vehicle: saline)?
Answer: 29 % of control

Question: What about the T/C [5] of the same molecule?
Answer: 19 % of control

Question: And the T/C (dose: 100.0 mg/kg/injection, schedule: Q01DX011 (ip), vehicle: saline)?
Answer: 63 % of control

Question: And the T/C (dose: 100.0 mg/kg/injection, schedule: Q01DX011 (oral), vehicle: saline)?
Answer: 72 % of control

Question: What about the T/C (dose: 110.0 mg/kg/injection, schedule: Q01DX011 (ip), vehicle: other) of the same molecule?
Answer: 17 % of control and 30 % of control

Question: And the T/C (dose: 110.0 mg/kg/injection, schedule: Q01DX011 (ip), vehicle: saline)?
Answer: 21 % of control and 38 % of control

Question: What about the T/C [6] of the same molecule?
Answer: 8 % of control

Question: What about the T/C (dose: 200.0 mg/kg/injection, schedule: Q01DX011 (ip), vehicle: saline) of the same molecule?
Answer: 46 % of control

Question: What about the T/C (dose: 200.0 mg/kg/injection, schedule: Q01DX011 (oral), vehicle: saline) of the same molecule?
Answer: 91 % of control

Question: And the T/C (dose: 225.0 mg/kg/injection, schedule: Q01DX011 (ip), vehicle: other)?
Answer: 17 % of control and 32 % of control

Question: What about the T/C (dose: 400.0 mg/kg/injection, schedule: Q01DX011 (oral), vehicle: saline) of the same molecule?
Answer: 117 % of control

Question: What about the T/C (dose: 450.0 mg/kg/injection, schedule: Q01DX011 (ip), vehicle: other) of the same molecule?
Answer: 6 % of control

Question: And the T/C (dose: 800.0 mg/kg/injection, schedule: Q01DX011 (oral), vehicle: saline)?
Answer: 66 % of control

Question: What about the T/C (dose: 900.0 mg/kg/injection, schedule: Q01DX011 (ip), vehicle: other) of the same molecule?
Answer: 15 % of control

Question: How did the T/C (dose: 0.15 mg/kg/injection, schedule: Q01DX011 (ip), vehicle: carboxymethylcellulose (CMC)) turn out when `N#Cc1cn(C2OC(CO)C(O)C2O)c2ncnc(N)c12` (centres undefined) was run?
Answer: 72 % of control

Question: For `[N-]=[N+]=NC1(C(=O)O)CCCC1`, which T/C (dose: 15.0 mg/kg/injection, schedule: Q01DX011 (ip), vehicle: carboxymethylcellulose (CMC)) is on record?
Answer: 109 % of control

Question: What about the T/C (dose: 30.0 mg/kg/injection, schedule: Q01DX011 (ip), vehicle: carboxymethylcellulose (CMC)) of the same molecule?
Answer: 100 % of control

Question: And the T/C (dose: 60.0 mg/kg/injection, schedule: Q01DX011 (ip), vehicle: carboxymethylcellulose (CMC))?
Answer: 120 % of control

Question: Which results are given for `COC(=O)c1cc(=O)[nH]c(N)n1`?
Answer: T/C (dose: 15.0 mg/kg/injection, schedule: Q01DX011 (ip), vehicle: saline): 101 % of control; T/C (dose: 31.0 mg/kg/injection, schedule: Q01DX011 (ip), vehicle: saline): 150 % of control; T/C (dose: 62.0 mg/kg/injection, schedule: Q01DX011 (ip), vehicle: saline): 97 % of control; T/C (dose: 125.0 mg/kg/injection, schedule: Q01DX011 (ip), vehicle: saline): 81 % of control; T/C (dose: 250.0 mg/kg/injection, schedule: Q01DX011 (ip), vehicle: saline): 113 % of control

Question: With `Oc1ccc2ccccc2c1N=Nc1ccc(N=Nc2ccccc2)cc1` as the molecule, how does the T/C [4] read?
Answer: 121 % of control

Question: What about the T/C [5] of the same molecule?
Answer: 116 % of control

Question: What about the T/C [6] of the same molecule?
Answer: 108 % of control

Question: Which results are given for `O=c1ccn(C2OC(CO)C(O)C2O)c(=O)[nH]1` (centres undefined)?
Answer: T/C (dose: 17.5 mg/kg/injection, schedule: Q01DX011 (ip), vehicle: other): 57 % of control; T/C (dose: 35.0 mg/kg/injection, schedule: Q01DX011 (ip), vehicle: other): 39 % of control; T/C (dose: 35.0 mg/kg/injection, schedule: Q01DX011 (ip), vehicle: saline): 30 % of control; T/C (dose: 70.0 mg/kg/injection, schedule: Q01DX011 (ip), vehicle: other): 105 % of control; T/C (dose: 70.0 mg/kg/injection, schedule: Q01DX011 (ip), vehicle: saline): 75 % of control; T/C (dose: 140.0 mg/kg/injection, schedule: Q01DX011 (ip), vehicle: other): 82 % of control; T/C (dose: 140.0 mg/kg/injection, schedule: Q01DX011 (ip), vehicle: saline): 32 % of control; T/C (dose: 280.0 mg/kg/injection, schedule: Q01DX011 (ip), vehicle: other): 56 % of control; T/C (dose: 280.0 mg/kg/injection, schedule: Q01DX011 (ip), vehicle: saline): 42 % of control

Question: What does the source list for `Cn1c[n+](C2OC(CO)C(O)C2O)c2nc([O-])[nH]c(=O)c21` (centres undefined)?
Answer: T/C [1]: 65 % of control; T/C [2]: 103 % of control; T/C [3]: 44 % of control

Question: With `C[C@]12C=CC(=O)C=C1CC[C@@H]1[C@@H]2[C@@H](O)C[C@@]2(C)[C@H]1CC[C@]2(O)C(=O)CF` as the molecule, how does the T/C (dose: 8.0 mg/kg/injection, schedule: Q01DX011 (sc), vehicle: steriod suspending solution) read?
Answer: 64 % of control

Question: And the T/C (dose: 16.0 mg/kg/injection, schedule: Q01DX011 (sc), vehicle: steriod suspending solution)?
Answer: 22 % of control

Question: And the T/C (dose: 132.0 mg/kg/injection, schedule: Q01DX011 (sc), vehicle: steriod suspending solution)?
Answer: 30 % of control

Question: What about the T/C (dose: 264.0 mg/kg/injection, schedule: Q01DX011 (sc), vehicle: steriod suspending solution) of the same molecule?
Answer: 5 % of control

Question: With `C(=N\OCCc1ccccc1)/c1cccnc1` as the molecule, how does the T/C (dose: 88.0 mg/kg/injection, schedule: Q01DX011 (ip), vehicle: methylcellulose (MC)) read?
Answer: 70 % of control
